Test results published in US20080009418A1, “Selective Inhibitors” (Alchemia LTD., priority 2004, published 2008).

Legend:
Human δ-opioid (DOP) = molecular target: T1, Human δ-opioid (DOP) (Homo sapiens, UniProt P41143); test: Radioligand binding, human δ-opioid (DOP) membranes, FlashPlate, [3H]-Bremazocine; conditions: compound at 10 μM; [3H]-Bremazocine
T1 construct: purchased Perkin Elmer Biosignal
How it was run: (§1)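 Cloned human receptor membranes were coated onto FlashPlate wells and incubated with radioligand and compound (added from a 0.5 mM DMSO daughter plate) for 1 hour at room temperature in the dark. Scintillation counting gave percent inhibition, with DMSO defining total and reference ligand defining non-specific binding.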

Human κ-Opioid (KOP) = molecular target: T2, Human κ-Opioid (KOP) (Homo sapiens, UniProt P41145); test: Radioligand binding, human κ-opioid (KOP) membranes, filtration, [3H]-Diprenorphine; conditions: compound at 10 μM; [3H]-Diprenorphine
T2 construct: purchased Perkin Elmer Biosignal
How it was run: (§2)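 Membranes from cloned human receptors were incubated with compound and radioligand for 1 hour at room temperature. Bound ligand was collected on 0.3% PEI-soaked filters, washed with cold 50 mM Tris-HCl pH 7.4, and counted by scintillation. Percent inhibition was computed against DMSO totals and reference-ligand nonspecific wells.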

Human Melanocortin (MC3) = molecular target: T3, Human Melanocortin (MC3) (Homo sapiens, UniProt P41968); test: Radioligand binding, human melanocortin MC3 membranes, FlashPlate, [125I]-NDP-αMSH; conditions: compound at 10 μM; [125I]-NDP-αMSH
T3 construct: purchased Perkin Elmer Biosignal
How it was run: as §1

Human Melanocortin (MC4) = molecular target: T4, Human Melanocortin (MC4) (Homo sapiens, UniProt P32245); test: Radioligand binding, human melanocortin MC4 membranes, FlashPlate, [125I]-NDP-αMSH; conditions: compound at 10 μM; [125I]-NDP-αMSH
T4 construct: purchased Perkin Elmer Biosignal
How it was run: as §1

Human melanocortin (MC5) = molecular target: T5, Human melanocortin (MC5) (Homo sapiens, UniProt P33032); test: Radioligand binding, human melanocortin MC5 membranes, FlashPlate, [125I]-NDP-αMSH; conditions: compound at 10 μM; [125I]-NDP-αMSH
T5 construct: purchased Perkin Elmer Biosignal
How it was run: as §1

[1] = molecular target: T6, Human melanin-concentrating hormone (MCH1) (Homo sapiens, UniProt Q99705); test: Radioligand binding, human melanin-concentrating hormone MCH1 membranes, FlashPlate, [125I]-S36057; conditions: compound at 10 μM; [125I]-S36057
T6 construct: purchased Perkin Elmer Biosignal
How it was run: as §1

Human μ-opioid (MOP) = molecular target: T7, Human μ-opioid (MOP) (Homo sapiens, UniProt P35372); test: Radioligand binding, human μ-opioid (MOP) membranes, FlashPlate, [3H]-Naloxone; conditions: compound at 10 μM; [3H]-Naloxone
T7 construct: purchased Perkin Elmer Biosignal
How it was run: as §1

Human neurokinin (NK1) = molecular target: T8, Human neurokinin (NK1) (Homo sapiens, UniProt P25103); test: Radioligand binding, human neurokinin NK1 membranes, filtration, [125I]-Substance P; conditions: compound at 10 μM; [125I]-Substance P
T8 construct: purchased Perkin Elmer Biosignal
How it was run: as §2

[2] = molecular target: T9, Human neuropeptide Y (NPY-Y1) (Homo sapiens, UniProt P25929); test: Radioligand binding, human neuropeptide Y NPY-Y1 membranes, FlashPlate, [125I]-PYY; conditions: compound at 10 μM; [125I]-PYY
T9 construct: purchased Perkin Elmer Biosignal
T9 sequence (P25929 1-384): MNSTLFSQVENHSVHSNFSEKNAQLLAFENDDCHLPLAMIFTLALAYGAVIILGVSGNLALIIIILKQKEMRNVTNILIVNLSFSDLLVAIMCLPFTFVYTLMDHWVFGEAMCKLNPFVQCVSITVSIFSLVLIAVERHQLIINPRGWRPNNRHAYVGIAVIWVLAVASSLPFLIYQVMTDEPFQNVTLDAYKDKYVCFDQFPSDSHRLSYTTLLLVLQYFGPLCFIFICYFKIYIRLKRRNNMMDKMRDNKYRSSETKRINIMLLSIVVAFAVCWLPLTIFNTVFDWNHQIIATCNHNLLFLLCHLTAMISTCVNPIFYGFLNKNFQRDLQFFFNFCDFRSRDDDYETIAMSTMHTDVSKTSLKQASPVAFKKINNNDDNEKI
How it was run: as §1

Human opioid (ORL1) = molecular target: T10, Human opioid (ORL1) (Homo sapiens, UniProt P41146); test: Radioligand binding, human opioid ORL1 membranes, FlashPlate, [125I]-Nociceptin; conditions: compound at 10 μM; [125I]-Nociceptin
T10 construct: purchased Perkin Elmer Biosignal
How it was run: as §1

Mouse urotensin (mUR2) = molecular target: T11, Mouse urotensin (mUR2) (Mus musculus, UniProt Q8VIH9); test: Radioligand binding, mouse urotensin mUR2 membranes, FlashPlate, [125I]-Urotensin II; conditions: compound at 10 μM; [125I]-Urotensin II
T11 construct: purchased Perkin Elmer Biosignal
T11 sequence (Q8VIH9 1-385): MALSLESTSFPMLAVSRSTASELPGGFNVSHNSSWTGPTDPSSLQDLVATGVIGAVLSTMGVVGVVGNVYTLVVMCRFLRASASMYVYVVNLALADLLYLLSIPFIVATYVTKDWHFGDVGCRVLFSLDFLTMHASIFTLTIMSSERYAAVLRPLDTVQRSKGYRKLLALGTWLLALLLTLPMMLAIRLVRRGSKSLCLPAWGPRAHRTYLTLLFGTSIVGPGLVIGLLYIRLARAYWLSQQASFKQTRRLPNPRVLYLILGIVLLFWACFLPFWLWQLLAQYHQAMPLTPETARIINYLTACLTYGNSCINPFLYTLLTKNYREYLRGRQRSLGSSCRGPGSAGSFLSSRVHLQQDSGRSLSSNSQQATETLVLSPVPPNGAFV
How it was run: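 Cloned mouse urotensin (mUR2) receptor membranes from Perkin Elmer Biosignal were immobilized in FlashPlate microplates using a proprietary coating. Each well got 19.5 μl buffer, then 0.5 μl of DMSO, reference ligand, or compound. Adding 5 μl of [125I]-Urotensin II, diluted to 5× final concentration in binding buffer, started binding. Plates were sealed with TopSeal-A and incubated 1 hour at room temperature in the dark. Wells were counted for 30 seconds each on a TopCount after a 60-second delay, and percentage inhibition was calculated.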

T5 sequence (P33032 whole entry): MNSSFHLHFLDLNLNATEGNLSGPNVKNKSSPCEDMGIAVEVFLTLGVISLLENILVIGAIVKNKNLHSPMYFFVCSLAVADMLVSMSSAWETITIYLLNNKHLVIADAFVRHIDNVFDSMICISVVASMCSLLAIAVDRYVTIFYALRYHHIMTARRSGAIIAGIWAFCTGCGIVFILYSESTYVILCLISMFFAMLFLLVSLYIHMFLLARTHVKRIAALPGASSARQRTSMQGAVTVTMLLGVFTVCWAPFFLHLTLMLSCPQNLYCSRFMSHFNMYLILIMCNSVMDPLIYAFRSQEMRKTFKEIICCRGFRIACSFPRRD
T7 sequence (P35372 whole entry): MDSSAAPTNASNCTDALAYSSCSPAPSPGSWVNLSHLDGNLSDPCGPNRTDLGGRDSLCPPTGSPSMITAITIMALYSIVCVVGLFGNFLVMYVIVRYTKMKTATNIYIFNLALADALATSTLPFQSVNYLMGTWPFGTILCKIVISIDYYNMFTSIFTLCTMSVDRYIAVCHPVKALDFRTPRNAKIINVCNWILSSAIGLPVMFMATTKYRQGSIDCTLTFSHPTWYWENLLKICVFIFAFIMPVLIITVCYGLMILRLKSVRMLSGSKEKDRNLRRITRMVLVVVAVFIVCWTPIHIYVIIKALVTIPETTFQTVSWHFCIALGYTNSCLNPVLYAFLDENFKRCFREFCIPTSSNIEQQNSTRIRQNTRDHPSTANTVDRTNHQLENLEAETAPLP
T1 sequence (P41143 whole entry): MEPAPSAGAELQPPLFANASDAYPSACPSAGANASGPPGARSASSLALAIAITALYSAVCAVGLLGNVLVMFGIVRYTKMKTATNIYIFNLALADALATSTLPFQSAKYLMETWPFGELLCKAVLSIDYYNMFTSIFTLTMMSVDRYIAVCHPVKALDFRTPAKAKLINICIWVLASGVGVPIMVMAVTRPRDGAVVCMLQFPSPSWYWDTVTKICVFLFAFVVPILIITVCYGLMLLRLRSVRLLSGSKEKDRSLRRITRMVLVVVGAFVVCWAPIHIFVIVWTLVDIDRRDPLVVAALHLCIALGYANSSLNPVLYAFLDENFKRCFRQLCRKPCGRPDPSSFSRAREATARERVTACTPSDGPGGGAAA
T6 sequence (Q99705 whole entry): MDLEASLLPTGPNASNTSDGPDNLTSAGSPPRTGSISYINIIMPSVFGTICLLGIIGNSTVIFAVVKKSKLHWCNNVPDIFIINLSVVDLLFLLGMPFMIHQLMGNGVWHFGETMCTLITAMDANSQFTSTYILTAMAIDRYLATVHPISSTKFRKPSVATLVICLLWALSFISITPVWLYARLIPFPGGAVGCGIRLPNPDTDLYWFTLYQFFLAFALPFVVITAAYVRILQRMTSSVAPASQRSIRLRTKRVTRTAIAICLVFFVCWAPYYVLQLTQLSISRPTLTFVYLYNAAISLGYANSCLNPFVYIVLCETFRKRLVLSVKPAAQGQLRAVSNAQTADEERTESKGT
T10 sequence (P41146 whole entry): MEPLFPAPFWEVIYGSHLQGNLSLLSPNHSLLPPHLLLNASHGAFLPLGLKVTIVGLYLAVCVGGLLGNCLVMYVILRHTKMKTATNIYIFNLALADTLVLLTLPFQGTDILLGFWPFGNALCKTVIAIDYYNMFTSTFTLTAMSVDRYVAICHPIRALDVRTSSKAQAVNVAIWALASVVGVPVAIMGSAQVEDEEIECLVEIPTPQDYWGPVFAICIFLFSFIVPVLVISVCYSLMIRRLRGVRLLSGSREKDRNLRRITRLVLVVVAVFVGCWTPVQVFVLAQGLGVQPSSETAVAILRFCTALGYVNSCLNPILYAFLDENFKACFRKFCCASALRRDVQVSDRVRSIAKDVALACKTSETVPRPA
T3 sequence (P41968 whole entry): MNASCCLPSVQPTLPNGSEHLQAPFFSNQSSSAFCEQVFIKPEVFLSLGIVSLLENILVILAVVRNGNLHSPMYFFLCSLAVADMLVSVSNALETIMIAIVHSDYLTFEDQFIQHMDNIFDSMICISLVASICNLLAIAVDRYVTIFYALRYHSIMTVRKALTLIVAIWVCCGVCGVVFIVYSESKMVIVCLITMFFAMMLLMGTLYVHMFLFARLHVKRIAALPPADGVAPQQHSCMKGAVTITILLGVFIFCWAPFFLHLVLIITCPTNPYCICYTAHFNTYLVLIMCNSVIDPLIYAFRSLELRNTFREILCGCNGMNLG
T2 sequence (P41145 whole entry): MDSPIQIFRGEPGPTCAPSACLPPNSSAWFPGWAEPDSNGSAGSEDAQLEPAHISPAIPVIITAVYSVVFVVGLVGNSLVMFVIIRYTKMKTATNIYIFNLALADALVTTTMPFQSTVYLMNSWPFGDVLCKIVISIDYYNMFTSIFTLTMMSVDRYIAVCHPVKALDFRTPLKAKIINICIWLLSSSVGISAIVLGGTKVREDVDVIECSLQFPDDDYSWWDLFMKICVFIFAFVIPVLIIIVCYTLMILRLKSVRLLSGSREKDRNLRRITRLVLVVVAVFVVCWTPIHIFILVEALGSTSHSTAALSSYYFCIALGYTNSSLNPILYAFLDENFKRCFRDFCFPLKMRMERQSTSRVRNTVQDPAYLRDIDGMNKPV
T4 sequence (P32245 whole entry): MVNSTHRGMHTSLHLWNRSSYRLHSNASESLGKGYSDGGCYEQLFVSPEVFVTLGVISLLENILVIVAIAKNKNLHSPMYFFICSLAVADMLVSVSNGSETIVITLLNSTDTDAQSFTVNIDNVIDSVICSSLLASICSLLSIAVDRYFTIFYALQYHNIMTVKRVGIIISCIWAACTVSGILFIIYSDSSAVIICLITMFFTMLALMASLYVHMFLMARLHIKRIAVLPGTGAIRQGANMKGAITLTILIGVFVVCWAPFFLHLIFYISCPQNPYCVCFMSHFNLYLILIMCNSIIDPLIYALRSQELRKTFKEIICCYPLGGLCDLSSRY
T8 sequence (P25103 whole entry): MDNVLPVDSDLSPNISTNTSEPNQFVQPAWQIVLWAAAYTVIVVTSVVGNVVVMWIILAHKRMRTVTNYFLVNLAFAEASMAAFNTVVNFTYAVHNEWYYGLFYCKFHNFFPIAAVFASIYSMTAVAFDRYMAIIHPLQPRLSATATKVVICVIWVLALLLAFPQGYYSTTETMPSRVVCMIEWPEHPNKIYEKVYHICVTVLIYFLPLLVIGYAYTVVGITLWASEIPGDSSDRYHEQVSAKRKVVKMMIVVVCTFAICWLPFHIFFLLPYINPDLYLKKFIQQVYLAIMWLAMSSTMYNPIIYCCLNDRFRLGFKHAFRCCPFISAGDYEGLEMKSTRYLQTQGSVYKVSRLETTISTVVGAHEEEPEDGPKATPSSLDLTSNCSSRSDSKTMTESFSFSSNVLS

SMILES | A1: inhibition of radioligand binding, human δ-opioid (DOP) (Human δ-opioid (DOP)) | A2: inhibition of radioligand binding, human κ-opioid (KOP) (Human κ-Opioid (KOP)) | A3: inhibition of radioligand binding, human melanocortin (MC3) (Human Melanocortin (MC3)) | A4: inhibition of radioligand binding, human melanocortin (MC4) (Human Melanocortin (MC4)) | A5: inhibition of radioligand binding, human melanocortin (MC5) (Human melanocortin (MC5)) | A6: inhibition of radioligand binding, human melanin-concentrating hormone (MCH1) [1] | A7: inhibition of radioligand binding, human μ-opioid (MOP) (Human μ-opioid (MOP)) | A8: inhibition of radioligand binding, human neurokinin (NK1) (Human neurokinin (NK1)) | A9: inhibition of radioligand binding, human neuropeptide Y (NPY-Y1) [2] | A10: inhibition of radioligand binding, human opioid (ORL1) (Human opioid (ORL1)) | A11: inhibition of radioligand binding, mouse urotensin (mUR2) (Mouse urotensin (mUR2))
NCCC(=O)NC1O[C@H](CO)[C@@H](O)[C@H](OCc2cccc3ccccc23)[C@H]1NC(=O)c1ccccc1 (stereo partly shown) [compound 358] | − (“−” indicates less than 50% inhibition at 10 μM) | − (“−” indicates less than 50% inhibition at 10 μM) | − (“−” indicates less than 50% inhibition at 10 μM) | − (“−” indicates less than 50% inhibition at 10 μM) | − (“−” indicates less than 50% inhibition at 10 μM) | − (“−” indicates less than 50% inhibition at 10 μM) | − (“−” indicates less than 50% inhibition at 10 μM) | − (“−” indicates less than 50% inhibition at 10 μM) | + (“+” indicates greater than 50% inhibition at 10 μM) | − (“−” indicates less than 50% inhibition at 10 μM) | − (“−” indicates less than 50% inhibition at 10 μM)
CC(=O)N[C@H]1C(NC(=O)CNC(=O)OC(C)(C)C)O[C@H](CO)[C@@H](O)[C@@H]1OCc1ccccc1 (stereo partly shown) [compound 359] | − (“−” indicates less than 50% inhibition at 10 μM) | − (“−” indicates less than 50% inhibition at 10 μM) | − (“−” indicates less than 50% inhibition at 10 μM) | − (“−” indicates less than 50% inhibition at 10 μM) | − (“−” indicates less than 50% inhibition at 10 μM) | − (“−” indicates less than 50% inhibition at 10 μM) | − (“−” indicates less than 50% inhibition at 10 μM) | + (“+” indicates greater than 50% inhibition at 10 μM) | + (“+” indicates greater than 50% inhibition at 10 μM) | − (“−” indicates less than 50% inhibition at 10 μM) | − (“−” indicates less than 50% inhibition at 10 μM)
NCC(=O)NC1O[C@H](CO)[C@@H](O)[C@H](OCc2ccccc2)[C@H]1NC(=O)c1ccccc1 (stereo partly shown) [compound 360] | − (“−” indicates less than 50% inhibition at 10 μM) | − (“−” indicates less than 50% inhibition at 10 μM) | − (“−” indicates less than 50% inhibition at 10 μM) | + (“+” indicates greater than 50% inhibition at 10 μM) | − (“−” indicates less than 50% inhibition at 10 μM) | − (“−” indicates less than 50% inhibition at 10 μM) | − (“−” indicates less than 50% inhibition at 10 μM) | − (“−” indicates less than 50% inhibition at 10 μM) | − (“−” indicates less than 50% inhibition at 10 μM) | − (“−” indicates less than 50% inhibition at 10 μM) | − (“−” indicates less than 50% inhibition at 10 μM)
NCC1CCC(C(=O)NC2O[C@H](CO)[C@@H](O)[C@H](OCc3ccc(Cl)cc3)[C@H]2NC(=O)c2ccccc2)CC1 (stereo partly shown) [compound 361] | − (“−” indicates less than 50% inhibition at 10 μM) | − (“−” indicates less than 50% inhibition at 10 μM) | − (“−” indicates less than 50% inhibition at 10 μM) | + (“+” indicates greater than 50% inhibition at 10 μM) | − (“−” indicates less than 50% inhibition at 10 μM) | − (“−” indicates less than 50% inhibition at 10 μM) | − (“−” indicates less than 50% inhibition at 10 μM) | − (“−” indicates less than 50% inhibition at 10 μM) | − (“−” indicates less than 50% inhibition at 10 μM) | − (“−” indicates less than 50% inhibition at 10 μM) | − (“−” indicates less than 50% inhibition at 10 μM)
NCC1CCC(C(=O)NC2O[C@H](CO)[C@@H](O)[C@H](OCc3cccc4ccccc34)[C@H]2NC(=O)c2ccccc2)CC1 (stereo partly shown) [compound 362] | − (“−” indicates less than 50% inhibition at 10 μM) | − (“−” indicates less than 50% inhibition at 10 μM) | − (“−” indicates less than 50% inhibition at 10 μM) | − (“−” indicates less than 50% inhibition at 10 μM) | − (“−” indicates less than 50% inhibition at 10 μM) | − (“−” indicates less than 50% inhibition at 10 μM) | − (“−” indicates less than 50% inhibition at 10 μM) | + (“+” indicates greater than 50% inhibition at 10 μM) | − (“−” indicates less than 50% inhibition at 10 μM) | − (“−” indicates less than 50% inhibition at 10 μM) | − (“−” indicates less than 50% inhibition at 10 μM)
